Data: the supplement of paper PMC11061612

Legend:
Olaparib = compound: O=C(c1cc(Cc2n[nH]c(=O)c3ccccc23)ccc1F)N1CCN(C(=O)C2CC2)CC1 [Olaparib]; details: max 10 µM
How it was run: (§1)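 Viability was measured with CellTiter-Glo 2.0 luminescence after 72 hours of dosing at a final DMSO of typically 0.2%, and scaled between blank-well and DMSO-well means. Beforehand, cancer cell lines sat 24 hours at 37°C and 5% CO2 in 1536-well plates in 7.5 μl DMEM/F12 or RPMI with 10% FBS. A non-linear mixed effects model fitted two-parameter logistic curves to the dose responses. The single-agent IC50 comes from these fits.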

Selumetinib = compound: Cn1cnc2c(F)c(Nc3ccc(Br)cc3Cl)c(C(=O)NOCCO)cc21 [Selumetinib]; details: max 10 µM
How it was run: as §1

AZD2811 = compound: CCN(CCO)CCCOc1ccc2c(Nc3cc(CC(=O)Nc4cccc(F)c4)[nH]n3)ncnc2c1 [AZD2811]; details: max 1 µM
How it was run: as §1

SG3199 = compound: CC1=CN2[C@@H](C1)C=NC3=CC(=C(C=C3C2=O)OC)OCCCCCOC4=C(C=C5C(=C4)N=C[C@@H]6CC(=CN6C5=O)C)OC [SG3199]; details: max 0.001 µM
How it was run: as §1

Trametinib = compound: CC(=O)Nc1cccc(-n2c(=O)n(C3CC3)c(=O)c3c(Nc4ccc(I)cc4F)n(C)c(=O)c(C)c32)c1 [Trametinib]; details: max 1 µM
How it was run: as §1

Palbociclib = compound: CC(=O)c1c(C)c2cnc(Nc3ccc(N4CCNCC4)cn3)nc2n(C2CCCC2)c1=O [Palbociclib]; details: max 10 µM
How it was run: as §1

Doxorubicin = compound: COc1cccc2c1C(=O)c1c(O)c3c(c(O)c1C2=O)C[C@@](O)(C(=O)CO)C[C@@H]3O[C@H]1C[C@H](N)[C@H](O)[C@H](C)O1 [Doxorubicin]; details: max 1 µM
How it was run: as §1

Taselisib = compound: Cc1nc(-c2cn3c(n2)-c2ccc(-c4cnn(C(C)(C)C(N)=O)c4)cc2OCC3)n(C(C)C)n1 [Taselisib]; details: max 10 µM
How it was run: as §1

AZD6738 = compound: C[C@@H]1COCCN1C2=NC(=NC(=C2)C3(CC3)[S@](=N)(=O)C)C4=C5C=CNC5=NC=C4 [AZD6738]; details: max 10 µM
How it was run: as §1

AZD0156 = compound: CN(C)CCCOc1ccc(-c2ccc3ncc4c(c3c2)n(C2CCOCC2)c(=O)n4C)cn1 [AZD0156]; details: max 3 µM
How it was run: as §1

Prexasertib = compound: COc1cccc(OCCCN)c1-c1cc(Nc2cnc(C#N)cn2)n[nH]1 [Prexasertib]; details: max 1 µM
How it was run: as §1

Venetoclax = compound: CC1(C)CCC(CN2CCN(c3ccc(C(=O)NS(=O)(=O)c4ccc(NCC5CCOCC5)c([N+](=O)[O-])c4)c(Oc4cnc5[nH]ccc5c4)c3)CC2)=C(c2ccc(Cl)cc2)C1 [Venetoclax]; details: max 1 µM
How it was run: as §1

AZD4320 = compound: CN(CC[C@H](CSC1=CC=CC=C1)NC2=C(C=C(C=C2)S(=O)(=O)NC(=O)C3=CC=C(C=C3)N4CCC(CC4)[C@H](C5=CC=CC=C5C6=CC=C(C=C6)Cl)O)S(=O)(=O)C(F)(F)F)CCO [AZD4320]; details: max 1 µM
How it was run: as §1

AZD5991 = compound: Cc1c2c(nn1C)CSCc1cc(n(C)n1)CSc1cc(c3ccccc3c1)OCCCc1c(C(=O)O)n(C)c3c-2c(Cl)ccc13 [AZD5991]; details: max 1 µM
How it was run: as §1

SN-38 = compound: CCc1c2c(nc3ccc(O)cc13)-c1cc3c(c(=O)n1C2)COC(=O)[C@]3(O)CC [SN-38]; details: max 0.3 µM
How it was run: as §1

AZD1775 = compound: C=CCn1c(=O)c2cnc(Nc3ccc(N4CCN(C)CC4)cc3)nc2n1-c1cccc(C(C)(C)O)n1 [AZD1775]; details: max 3 µM
How it was run: as §1

Dasatinib = compound: CC1=C(C(=CC=C1)Cl)NC(=O)C2=CN=C(S2)NC3=CC(=NC(=N3)C)N4CCN(CC4)CCO [Dasatinib]; details: max 2 µM
How it was run: as §1

Alisertib = compound: COc1cc(Nc2ncc3c(n2)-c2ccc(Cl)cc2C(c2c(F)cccc2OC)=NC3)ccc1C(=O)O [Alisertib]; details: max 10 µM
How it was run: as §1

AZD1390 = compound: CC(C)n1c(=O)n(C)c2cnc3cc(F)c(-c4ccc(OCCCN5CCCCC5)nc4)cc3c21 [AZD1390]; details: max 0.3 µM
How it was run: as §1

Crizotinib = compound: C[C@@H](Oc1cc(-c2cnn(C3CCNCC3)c2)cnc1N)c1c(Cl)ccc(F)c1Cl [Crizotinib]; details: max 10 µM
How it was run: as §1

AZD5153 = compound: COc1nnc2ccc(N3CCC(c4ccc(OCCN5CCN(C)C(=O)[C@H]5C)cc4)CC3)nn12 [AZD5153]; details: max 1 µM
How it was run: as §1

Capivasertib = compound: C1CN(CCC1(C(=O)N[C@@H](CCO)C2=CC=C(C=C2)Cl)N)C3=NC=NC4=C3C=CN4 [Capivasertib]; details: max 10 µM
How it was run: as §1

Savolitinib = compound: C[C@@H](c1ccc2nccn2c1)n1nnc2ncc(-c3cnn(C)c3)nc21 [Savolitinib]; details: max 1 µM
How it was run: as §1

AZD7648 = compound: Cc1cc2ncnn2cc1Nc1ncc2c(n1)n(C1CCOCC1)c(=O)n2C [AZD7648]; details: max 10 µM
How it was run: as §1

AZD8186 = compound: C[C@@H](Nc1cc(F)cc(F)c1)c1cc(C(=O)N(C)C)cc2c(=O)cc(N3CCOCC3)oc12 [AZD8186]; details: max 3 µM
How it was run: as §1

Gefitinib = compound: COc1cc2ncnc(Nc3ccc(F)c(Cl)c3)c2cc1OCCCN1CCOCC1 [Gefitinib]; details: max 10 µM
How it was run: as §1

Lapatinib = compound: CS(=O)(=O)CCNCc1ccc(-c2ccc3ncnc(Nc4ccc(OCc5cccc(F)c5)c(Cl)c4)c3c2)o1 [Lapatinib]; details: max 10 µM
How it was run: as §1

MK-2206 = compound: NC1(c2ccc(-c3nc4ccn5c(=O)[nH]nc5c4cc3-c3ccccc3)cc2)CCC1 [MK-2206]; details: max 10 µM
How it was run: as §1

| Cell Line | IC50, cell viability 72 h (Olaparib) [µM] | IC50, cell viability 72 h (Selumetinib) [µM] | IC50, cell viability 72 h (AZD2811) [µM] | IC50, cell viability 72 h (SG3199) [µM] | IC50, cell viability 72 h (Trametinib) [µM] | IC50, cell viability 72 h (Palbociclib) [µM] | IC50, cell viability 72 h (Doxorubicin) [µM] | IC50, cell viability 72 h (Taselisib) [µM] | IC50, cell viability 72 h (AZD6738) [µM] | IC50, cell viability 72 h (AZD0156) [µM] | IC50, cell viability 72 h (Prexasertib) [µM] | IC50, cell viability 72 h (Venetoclax) [µM] | IC50, cell viability 72 h (AZD4320) [µM] | IC50, cell viability 72 h (AZD5991) [µM] | IC50, cell viability 72 h (SN-38) [µM] | IC50, cell viability 72 h (AZD1775) [µM] | IC50, cell viability 72 h (Dasatinib) [µM] | IC50, cell viability 72 h (Alisertib) [µM] | IC50, cell viability 72 h (AZD1390) [µM] | IC50, cell viability 72 h (Crizotinib) [µM] | IC50, cell viability 72 h (AZD5153) [µM] | IC50, cell viability 72 h (Capivasertib) [µM] | IC50, cell viability 72 h (Savolitinib) [µM] | IC50, cell viability 72 h (AZD7648) [µM] | IC50, cell viability 72 h (AZD8186) [µM] | IC50, cell viability 72 h (Gefitinib) [µM] | IC50, cell viability 72 h (Lapatinib) [µM] | IC50, cell viability 72 h (MK-2206) [µM] |
| --- | --- | --- | --- | --- | --- | --- | --- | --- | --- | --- | --- | --- | --- | --- | --- | --- | --- | --- | --- | --- | --- | --- | --- | --- | --- | --- | --- | --- |
| G-401 (Other Solid Carcinomas) | > 10 | > 10 | > 1 | > 0.001 | 0.0842 | 0.833 | 0.111 | 0.336 | > 10 | > 3 | 0.239 | > 1 | > 1 | > 1 | 0.0589 | 1.41 | > 2 | 1 | > 0.3 | 5.41 | 0.0483 | 2.71 | > 1 | > 10 | > 3 | > 10 | > 10 |  |
| HCC1500 (Breast Carcinoma) | > 10 | > 10 | > 1 | > 0.001 | > 1 | > 10 | > 1 | > 10 | > 10 | > 3 | > 1 | 0.291 | 0.0452 | > 1 | 0.213 | 2.9 | > 2 | > 10 | > 0.3 | > 10 | > 1 | > 10 | > 1 | > 10 | > 3 | > 10 | > 10 | > 10 |
| HCC1937 (Breast Carcinoma) | > 10 | > 10 | > 1 | > 0.001 | > 1 | > 10 | > 1 | 9.15 | > 10 | > 3 | 0.318 | > 1 | > 1 | > 1 | > 0.3 | 0.643 | > 2 | > 10 | > 0.3 | > 10 | > 1 | > 10 | > 1 | > 10 | > 3 | > 10 | > 10 | > 10 |
